US10239957B2, “Peptide containing conjugates for dual molecular delivery of oligonucleotides” (Merck Sharp & Dohme Corp., priority 2013, dated 2019)
Where no end group is shown, it is not given here. [ ]: non-standard residue; d: D form. TGN = not defined here

Legend:
CTNNB1 [1] = assay: In vivo evaluation in mice: liver mRNA knockdown measurement
Description: Female CD-1 mice (Charles River) were injected in accordance with either a sequential dosing paradigm or a co-dosing paradigm. In the sequential dosing paradigm, the targeted siRNA (SCE) is dosed at t=0 and the targeted peptide is separately dosed up to 2 hr before the SCE (−2 hr) or up to 24 hr after the SCE (+24 hr). In the co-dosing paradigm, the SCE and peptides are co-formulated and dosed together in the same formulation as a single injection at t=0. The mice were dosed either by intravenous (i.v.) or subcutaneous (s.c.) injection of SCE and peptide. For the i.v. doses, the compounds were injected into the tail vein of the mice. For the s.c. doses, the compounds were injected in the subcutaneous space on the back of the mouse between the shoulder blades. At the indicated harvest times (measured from t=0 when the siRNA was dosed, regardless of when the peptide was dosed), the animals were sacrificed and 3 mm liver punches were collected, preserved in RNAlater (Ambion), and stored at 4° C. Separate 5 mm liver punches were collected, placed in 96-well plates, frozen on dry ice, and stored at −80° C. until use.
The 3 mm liver punches were removed from RNAlater and homogenized in Trizol (Invitrogen) using a bead mill tissue lyser (Qiagen); disruption was performed for two 5-minute cycles at 30 Hz. RNA extraction was performed using 1-bromo-2-chloropropane (Acros Organics) and total RNA was isolated from the aqueous phase using the MagMax RNA isolation method (Ambion). […] TaqMan qPCR analysis was performed with an ABI 7900 Real-Time PCR System using TaqMan Fast Advanced Master Mix (Applied Biosystems). All TaqMan probes and primers for CTNNB1 and PPIB (housekeeping gene) were purchased from Applied Biosystems as pre-validated gene expression assays. Results are calculated by the comparative Ct method, where the difference between the CTNNB1 Ct value and the PPIB Ct value (ΔCt) is calculated and then further normalized relative to the PBS control by taking a second difference (ΔΔCt), as described previously (1).

CTNNB1 [2] = assay: In vitro DMD assay: mRNA silencing enhancement by peptide conjugates after siRNA-IV treatment; format: cell-based; conditions: primary mouse hepatocytes, siRNA-IV 125 nM baseline
Outline: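 RT-qPCR read-out, PPIB-normalized (dddCt), gave silencing enhancement versus 125 nM siRNA-IV alone and untreated cells. Beforehand, cultured primary mouse hepatocytes received siRNA-IV for 1 h, then graded peptide-conjugate doses for ~16 h, followed by washout and a further 24 h incubation.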

[3] = Table 8 (linkage comparison), TGN-L-siRNA-II 0.25 mg/kg, peptide 1 mg/kg
[4] = Table 8 (linkage comparison), TGN-L-siRNA-II 0.25 mg/kg, peptide 3 mg/kg
[5] = mice, TGN-L-siRNA-II 0.25 mg/kg IV, peptide 1 mg/kg IV 15 min after siRNA
[6] = mice, TGN-L-siRNA-II 0.25 mg/kg IV, peptide 3 mg/kg IV 15 min after siRNA
[7] = mice, TGN-L-siRNA-III 0.25 mg/kg IV, peptide 2 mg/kg IV 15 min after siRNA
[8] = mice, TGN-L-siRNA-III 0.25 mg/kg IV, peptide 10 mg/kg IV 15 min after siRNA
[9] = mice, TGN-L-siRNA-III 0.5 mg/kg IV, peptide 5 mg/kg IV 15 min after siRNA
[10] = mice, TGN-L-siRNA-III 0.5 mg/kg IV, peptide 2 mg/kg IV 15 min after siRNA
[11] = mice, TGN-L-siRNA-III 0.5 mg/kg IV, peptide 10 mg/kg IV 15 min after siRNA
[12] = mice, TGN-L-siRNA-III 0.25 mg/kg IV, peptide 5 mg/kg IV 15 min after siRNA

## TGN-CDM-SEQ ID NO: 1801 (D): TGN-CDM peptide; peptide glfgeieelieeglenlidwgng; C8 made from the same all(D) sequence (G[dL][dF]G[dE][dI][dE][dE][dL][dI][dE][dE]G[dL][dE][dN][dL][dI][dD][dW]G[dN]G; also: TGN-CDM conjugate; listed as Homo sapiens)
CTNNB1 [1]; [3]
  In vivo mRNA knockdown: 23.0%
CTNNB1 [1]; [4]
  In vivo mRNA knockdown: 24.9%

## TGN-ECL-SEQ ID NO: 1802 (D): TGN-ECL-peptide; peptide gffgaiwefihsil (G[dF][dF]G[dA][dI][dW][dE][dF][dI][dH][dS][dI][dL]; also: TGN-ECL conjugate; listed as Homo sapiens)
CTNNB1 [1]; [3]
  In vivo mRNA knockdown: 28.7%
CTNNB1 [1]; [4]
  In vivo mRNA knockdown: 64.0%

## TGN-S-S- SEQ ID NO: 1738 (D) (G[dL][dF]G[dE][dI][dE][dE][dL][dI][dE][dE]G[dL][dE][dN][dL][dI][dD][dW]G[dN]G[dL][dA][dE][dL][dA][dE][dA][dL][dE][dA][dL][dA][dA]GG[dS][dC]; not fully specified (residue 40); also: TGN attached via disulfide; listed as Homo sapiens)
CTNNB1 [1]; [5]
  In vivo mRNA knockdown: 25%
CTNNB1 [1]; [6]
  In vivo mRNA knockdown: 44%

## TGN-S-S-SEQ ID NO: 935 (L) (C(TGN)GFFGEIAELIWEGLKNLIDWWNG; reading uncertain; also: TGN linked to Cys via disulfide, TGN not defined; listed as Homo sapiens)
CTNNB1 [1]; [7]
  In vivo mRNA knockdown: 17%
CTNNB1 [1]; [8]
  In vivo mRNA knockdown: 23%

## TGN-S-S-SEQ ID NO: 1248 (L) (C(TGN)FLEELWELLEHLL; reading uncertain; also: TGN disulfide conjugate at Cys1; listed as Homo sapiens)
CTNNB1 [1]; [9]
  In vivo mRNA knockdown: 24%

## TGN-S-S-SEQ ID NO: 1403 (L) (C(TGN)GLLEEIEELLEEGLENLIDWWNS; reading uncertain; also: TGN disulfide conjugate at Cys1; listed as Homo sapiens)
CTNNB1 [1]; [7]
  In vivo mRNA knockdown: 22%
CTNNB1 [1]; [8]
  In vivo mRNA knockdown: 24%

## TGN-S-S-SEQ ID NO: 1489 (D) ([dC][dL][dE][dL][dW][dL][dE][dH][dL][dF][dL][dE][dL][dE]; not fully specified (residue 1); also: TGN attached via disulfide; listed as Homo sapiens)
CTNNB1 [1]; [10]
  In vivo mRNA knockdown: 37%
CTNNB1 [1]; [11]
  In vivo mRNA knockdown: 26%
CTNNB1 [1]; mice, TGN-L-siRNA-III 0.5 mg/kg IV, peptide 25 mg/kg IV 15 min after siRNA
  In vivo mRNA knockdown: 34%

## TGN-S-S-SEQ ID NO: 1516 (L) (C(TGN)GLFAEIEELLEEGLENLIDWWNG; reading uncertain; also: TGN disulfide conjugate at Cys1; listed as Homo sapiens)
CTNNB1 [1]; [12]
  In vivo mRNA knockdown: 14%

## TGN-S-S-SEQ ID NO: 1643 (D) ([dC]G[dF][dF]G[dE][dI][dA][dE][dL][dI][dE][dE]G[dL][dK][dN][dL][dI][dD][dW]G[dN]G; not fully specified (residue 1); also: TGN attached via disulfide; listed as Homo sapiens)
CTNNB1 [1]; [8]
  In vivo mRNA knockdown: 41%

## TGN-S-S-SEQ ID NO: 1716 (L) (C(TGN)GLFEELAGLLWHGLKNLIDWWNG; reading uncertain; also: TGN disulfide conjugate at Cys1; listed as Homo sapiens)
CTNNB1 [1]; [9]
  In vivo mRNA knockdown: 39%

## TGN-S-S-SEQ ID NO: 1717(L): TGN-S-S-peptide; peptide CFLGALFHALSHLLENLIDWWNG (C(TGN)FLGALFHALSHLLENLIDWWNG; reading uncertain; also: TGN disulfide conjugate at Cys1; listed as Homo sapiens)
CTNNB1 [1]; [9]
  In vivo mRNA knockdown: 16%

## TGN-S-S-SEQ ID NO: 1719 (L) (C(TGN)GLFAEIEELIWEGLENLIDWWNQ; reading uncertain; also: TGN disulfide conjugate at Cys1; listed as Homo sapiens)
CTNNB1 [1]; [12]
  In vivo mRNA knockdown: 25%

## TGN-S-S-SEQ ID NO: 1725 (L) (C(TGN)SSAWWSYWPPVA; reading uncertain; also: TGN disulfide conjugate at Cys1; listed as Homo sapiens)
CTNNB1 [1]; [8]
  In vivo mRNA knockdown: 19%

## TGN-S-S-SEQ ID NO: 1726(D): TGN-S-S-peptide; peptide CGLFAVIKKVASVIGGL ([dC]G[dL][dF][dA][dV][dI][dK][dK][dV][dA][dS][dV][dI]GG[dL]; not fully specified (residue 1); also: TGN attached via disulfide; listed as Homo sapiens)
CTNNB1 [1]; [8]
  In vivo mRNA knockdown: 23%

## TGN-S-S-SEQ ID NO: 1727 (D): TGN-S-S-peptide; peptide CGLFAVIHHVASVIGGL ([dC]G[dL][dF][dA][dV][dI][dH][dH][dV][dA][dS][dV][dI]GG[dL]; not fully specified (residue 1); also: TGN attached via disulfide; listed as Homo sapiens)
CTNNB1 [1]; [8]
  In vivo mRNA knockdown: 26%

## TGN-S-S-SEQ ID NO: 1728(D): TGN-S-S-peptide; peptide CGLFAVIEEVASVIGGL ([dC]G[dL][dF][dA][dV][dI][dE][dE][dV][dA][dS][dV][dI]GG[dL]; not fully specified (residue 1); also: disulfide to TGN peptide via Cys1; listed as Homo sapiens)
CTNNB1 [1]; [8]
  In vivo mRNA knockdown: 23%

## TGN-S-S-SEQ ID NO: 1729 (L) (C(TGN)GPSQPTYPGDDAPVRDLIRFYRDLRRYLNVVTRHRY; reading uncertain; also: TGN linked to Cys via disulfide, TGN not defined; listed as Homo sapiens)
CTNNB1 [1]; [8]
  In vivo mRNA knockdown: 10%

## TGN-S-S-SEQ ID NO: 1740 (D): TGN-S-S-peptide; peptide GLFEAIEGFIENGWEGLAELAEALEALAAGGSC (G[dL][dF][dE][dA][dI][dE]G[dF][dI][dE][dN]G[dW][dE]G[dL][dA][dE][dL][dA][dE][dA][dL][dE][dA][dL][dA][dA]GG[dS][dC]; not fully specified (residue 33); also: disulfide to TGN peptide via Cys33; listed as Homo sapiens)
CTNNB1 [1]; [5]
  In vivo mRNA knockdown: 23%
CTNNB1 [1]; [6]
  In vivo mRNA knockdown: 42%

## TGN-S-S-SEQ ID NO: 1741(L): TGN-S-S-peptide; peptide GLFGALAEALAEALAEHLAEALAEALEALAAGGSC (GLFGALAEALAEALAEHLAEALAEALEALAAGGSC(TGN); reading uncertain; also: TGN linked to Cys via disulfide, TGN not defined; listed as Homo sapiens)
CTNNB1 [1]; [6]
  In vivo mRNA knockdown: 24%

## TGN-S-S-SEQ ID NO: 1744 (D) ([dC][dE][dE][dN][dW][dI]G[dL][dF]GGG[dN][dI][dW][dE][dE][dE][dE][dI][dL][dD][dL][dL]; not fully specified (residue 1); also: disulfide to TGN peptide via Cys1; listed as Homo sapiens)
CTNNB1 [1]; [10]
  In vivo mRNA knockdown: 28%
CTNNB1 [1]; [11]
  In vivo mRNA knockdown: 33%

## TGN-S-SEQ ID NO: 1517 (L) (CGLFGEIEELIEEGLECITLIDWWNG; cysteine pairing not given here; also: TGN-S conjugate; listed as Homo sapiens)
CTNNB1 [2]; Targeted peptide dose 25 nM
  In vitro dddCt (vs. baseline SCE dose): 0.54
CTNNB1 [2]; Targeted peptide dose 125 nM
  In vitro dddCt (vs. baseline SCE dose): 0.49
CTNNB1 [2]; Targeted peptide dose 625 nM
  In vitro dddCt (vs. baseline SCE dose): 0.48
CTNNB1 [2]; Targeted peptide dose 3125 nM
  In vitro dddCt (vs. baseline SCE dose): 0.33
